The results in this text go back to PubChem BioAssay (NCI).

Where “and” joins values, the source holds several entries; their conditions need not be identical. Equal values may be shown once.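 Results reflect a 48-hour exposure of cells in 96-well plates to compound at five concentrations. At the GI50, growth is halved. Definition used: TGI = concentration required for complete inhibition of growth.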

Among the test systems are 786-0 renal; CCRF-CEM leukemia; NCI-H522 lung; NCI/ADR-RES ovarian; PC-3 prostate; RPMI-8226 leukemia; SK-OV-3 ovarian; SNB-19 CNS; SNB-75 CNS; UACC-62 melanoma.
Holding throughout (assay): NCI-60 cell line screen, 48 h

Consider `CCOc1ccc(NC2=CC(=O)C(=O)c3ccccc32)cc1`, for which the TGI in the assay on 786-0 renal came out at 13.7 µM; in the assay on CCRF-CEM leukemia, 56.8 µM; with NCI-H522 lung it was 3.39 µM; with NCI/ADR-RES ovarian, 11.3 µM; in the assay on PC-3 prostate, 19.8 µM; with RPMI-8226 leukemia, 26.2 µM. For the same compound, the TGI amounted to 24.9 µM with SK-OV-3 ovarian, 9.46 µM in the assay on SNB-19 CNS, 5.35 µM in the assay on SNB-75 CNS and 3.2 µM in the assay with UACC-62 melanoma.

For the compound `COc1cc(-c2nn(-c3cccc(NC(=O)c4ccccc4)c3)cc2-c2ccncc2)ccc1Cl`, the GI50 is 1.1 µM in the assay on 786-0 renal; 0.492 µM in the assay with CCRF-CEM leukemia; 0.238 µM in the assay on NCI-H522 lung; 0.36 µM with NCI/ADR-RES ovarian; 0.333 µM with PC-3 prostate; 0.457 µM in the assay on RPMI-8226 leukemia. For the same compound, the GI50 in the assay with SK-OV-3 ovarian is 1.19 µM; in the assay with SNB-19 CNS it was 1.37 µM; with SNB-75 CNS, 0.575 µM; with UACC-62 melanoma, 0.568 µM. Besides, the TGI with 786-0 renal was over 100 µM; in the assay with CCRF-CEM leukemia, over 100 µM; with NCI/ADR-RES ovarian, over 100 µM; with PC-3 prostate, over 33.5 µM; in the assay with RPMI-8226 leukemia, over 100 µM; in the assay on SK-OV-3 ovarian, over 100 µM. For the same compound, the TGI in the assay with SNB-19 CNS, with SNB-75 CNS and with UACC-62 melanoma was over 100 µM each time.

Regarding `O=C1c2ccccc2C(=O)c2c(/C=C\N3CCCCC3)ccnc21`, the TGI was 31.3 µM in the assay on 786-0 renal; 47.6 µM in the assay on CCRF-CEM leukemia; 13.3 µM with NCI-H522 lung; over 95.4 µM with NCI/ADR-RES ovarian; 28 µM in the assay on PC-3 prostate; 52.6 µM in the assay with RPMI-8226 leukemia. The TGI is 50.9 µM in the assay with SK-OV-3 ovarian, 17.1 µM in the assay with SNB-19 CNS, 7.2 µM in the assay on SNB-75 CNS and 1.58 µM with UACC-62 melanoma.

Turning to `C=C1C[C@H](O)[C@H](Br)C(C)(C)[C@@]12CCC(C)=C(Cl)C2`, the GI50 was 0.57 µM with 786-0 renal; 0.445 µM with CCRF-CEM leukemia; 0.416 µM in the assay with NCI-H522 lung; 0.247 µM in the assay with NCI/ADR-RES ovarian; 0.0573 µM with PC-3 prostate; 0.229 µM with RPMI-8226 leukemia. For the same compound, the GI50 in the assay with SK-OV-3 ovarian was 0.297 µM; with SNB-19 CNS it was 0.683 µM; in the assay on SNB-75 CNS, 0.16 µM; in the assay on UACC-62 melanoma, 0.675 µM. The TGI in the assay with 786-0 renal is 11.7 µM; in the assay with CCRF-CEM leukemia it was 7.92 µM; with NCI-H522 lung, 3.46 µM; with NCI/ADR-RES ovarian, 11.2 µM; in the assay with PC-3 prostate, 1.87 µM; with RPMI-8226 leukemia it was 1.25 µM. Besides, the TGI in the assay with SK-OV-3 ovarian is 6.41 µM; in the assay on SNB-19 CNS, 14.1 µM; in the assay with SNB-75 CNS it was 0.785 µM; in the assay with UACC-62 melanoma, 3.15 µM.

Regarding `C=CC(=O)Nc1cc(Nc2nccc(-c3cn(C)c4ccccc34)n2)c(OC)cc1N(C)CCN(C)C`, the GI50 in the assay on 786-0 renal was 1.4 µM and 1.38 µM; with CCRF-CEM leukemia it was 1.61 µM and 2.19 µM; in the assay on NCI-H522 lung, 0.169 µM and 0.0657 µM; in the assay on NCI/ADR-RES ovarian it was 1.85 µM and 1.45 µM; in the assay on PC-3 prostate, 2.74 µM and 2.11 µM; in the assay on RPMI-8226 leukemia it was 1.95 µM and 1.45 µM. For the same compound, the GI50 in the assay on SK-OV-3 ovarian was 0.0501 µM and 0.0311 µM; with SNB-19 CNS it was 2.69 µM and 2.06 µM; in the assay with SNB-75 CNS, 3.52 µM and 2.57 µM; with UACC-62 melanoma, 1.85 µM and 1.71 µM. In addition, the TGI was 2.94 µM and 2.9 µM with 786-0 renal; 5.84 µM and 5.33 µM in the assay on CCRF-CEM leukemia; 1.98 µM and 1.53 µM in the assay with NCI-H522 lung; 9.57 µM and 8.18 µM in the assay with NCI/ADR-RES ovarian; 12.1 µM and 5.55 µM with PC-3 prostate; 6.65 µM and 4.08 µM in the assay on RPMI-8226 leukemia. Moreover, the TGI is 18.1 µM and > 10 µM in the assay with SK-OV-3 ovarian; 18.4 µM and > 10 µM with SNB-19 CNS; 16.4 µM and > 10 µM in the assay on SNB-75 CNS; 3.61 µM and 3.4 µM with UACC-62 melanoma.

Consider `CN(C)c1ccc(/C=N/NC(=S)Nc2ccccc2)cc1`, for which the TGI in the assay with 786-0 renal, in the assay on CCRF-CEM leukemia, with NCI-H522 lung, in the assay on NCI/ADR-RES ovarian, in the assay with PC-3 prostate and with RPMI-8226 leukemia was over 100 µM throughout. In addition, the TGI in the assay on SK-OV-3 ovarian, in the assay on SNB-19 CNS, with SNB-75 CNS and with UACC-62 melanoma was over 100 µM in each case.

On to `NC(=S)N/N=C\c1nccc2c(C(F)(F)F)cccc12`, for which the GI50 in the assay with 786-0 renal was 0.3 µM; in the assay on CCRF-CEM leukemia, 0.278 µM; with NCI-H522 lung it was 0.269 µM; in the assay with NCI/ADR-RES ovarian, 0.349 µM; with PC-3 prostate it was 0.351 µM; in the assay with RPMI-8226 leukemia, 0.376 µM. The GI50 is 0.17 µM in the assay on SK-OV-3 ovarian, 0.382 µM with SNB-19 CNS, 0.284 µM in the assay with SNB-75 CNS and 0.283 µM in the assay with UACC-62 melanoma. Besides, the TGI in the assay with 786-0 renal stood at 0.957 µM; with CCRF-CEM leukemia, 12.1 µM; in the assay on NCI-H522 lung it was 0.805 µM; with NCI/ADR-RES ovarian it was 20.4 µM; with PC-3 prostate, 15.2 µM; in the assay with RPMI-8226 leukemia it was 14.9 µM. In addition, the TGI was 5.89 µM in the assay on SK-OV-3 ovarian, over 100 µM with SNB-19 CNS, 16.7 µM in the assay on SNB-75 CNS and 1.15 µM in the assay on UACC-62 melanoma.

Consider `CC[C@@H](c1ccc(O)c(O)c1)[C@@H](CC)c1ccc(O)c(O)c1`, for which the GI50 with 786-0 renal is 20.4 µM; in the assay on CCRF-CEM leukemia it was 2.88 µM; with NCI-H522 lung, 2.46 µM; with NCI/ADR-RES ovarian it was 10.1 µM; with PC-3 prostate it was 12.4 µM; with RPMI-8226 leukemia it was 4.31 µM. For the same compound, the GI50 with SK-OV-3 ovarian was 29.4 µM; with SNB-19 CNS it was 40.4 µM; in the assay with SNB-75 CNS, 17.7 µM; with UACC-62 melanoma, 10.4 µM. For the same compound, the TGI in the assay with 786-0 renal was determined as 38.2 µM; with CCRF-CEM leukemia it was 9.39 µM; with NCI-H522 lung, 5.63 µM; in the assay on NCI/ADR-RES ovarian, 62.7 µM; with PC-3 prostate, 28.9 µM; in the assay with RPMI-8226 leukemia it was 26.3 µM. The TGI with SK-OV-3 ovarian was 77.9 µM; in the assay with SNB-19 CNS, over 100 µM; in the assay on SNB-75 CNS it was 41.6 µM; with UACC-62 melanoma, 23.4 µM.

Consider `CN1CCN(c2ccc(Nc3ncc(Cl)c(NC[C@@H]4CCCO4)n3)cc2)CC1`, for which the GI50 in the assay with 786-0 renal is 1.68 µM; with CCRF-CEM leukemia, 0.466 µM; in the assay on NCI-H522 lung it was 1.52 µM; in the assay with NCI/ADR-RES ovarian, 3.15 µM; in the assay with PC-3 prostate it was 2.24 µM; with RPMI-8226 leukemia it was 1.48 µM. Besides, the GI50 with SK-OV-3 ovarian was 2.63 µM; with SNB-19 CNS it was 3.69 µM; in the assay with SNB-75 CNS, 1.14 µM; in the assay on UACC-62 melanoma, 1.95 µM. The TGI is 15.1 µM in the assay with 786-0 renal; 9.04 µM with CCRF-CEM leukemia; 10.9 µM in the assay with NCI-H522 lung; over 100 µM in the assay on NCI/ADR-RES ovarian; over 100 µM with PC-3 prostate; 5.63 µM in the assay on RPMI-8226 leukemia. The TGI is 63.8 µM in the assay on SK-OV-3 ovarian, over 100 µM with SNB-19 CNS, 4.72 µM in the assay on SNB-75 CNS and 10.5 µM in the assay on UACC-62 melanoma.
